Data as given in patent US6723364B1, “Fog treatment method using a liquid composition for treating fruits and vegetables and implementing device” (Xeda International, priority 1998, dated 2004).
In brackets after ≈: the same amount, converted by molar mass. Where two headings read alike, the source gives them in different places.

How the values were obtained:
[1] = system: Alternaria alternata; experiment: Fungicidal activity in vitro: mycelial growth on Cristomalt agar; type: cell-based; details: for Inhibition grades: MIC expressed on the scale of Table 2; for MIC: Alternaria alternata, read-out: MIC (content giving complete inhibition of mycelial growth)
Protocol: (§1) The Cristomalt medium used for the evaluations of the fungicidal activities comprises 0.1% of Cristomalt (malt extract) and 0.2% of agar.
(§2) This culture medium is, after sterilization, brought to 55° C. The terpene compound tested is then introduced in the pure form into the culture medium under warm conditions. Immediately after agitating, the medium, enriched with the terpene product, is poured into Petri dishes (diameter 9 cm, filled with 20 ml of medium). The agar-comprising medium solidifies on cooling. The Petri dishes are then inoculated with plugs, with a diameter of 6 mm, withdrawn from the edge of a culture of the tested fungus, which culture is obtained on Cristomalt medium.
(§3) Inoculation is carried out at 22° C.
(§4) The mycelial growth was determined periodically (5 to 15 days, according to the species of fungus).
(§5) The results are expressed in Table 3 below in terms of MIC, which is the content (in μg/ml) which makes it possible to obtain complete inhibition of mycelial growth.
(§6) In f act, each experiment was carried out several times, so that, for each terpene and for each species of fungus, a minimum value and a maximum value were obtained.

[2] = system: Botrytis cinerea; experiment: as above; type: cell-based; details: for Inhibition grades: MIC expressed on the scale of Table 2; for MIC: Botrytis cinerea, read-out: MIC (content giving complete inhibition of mycelial growth)
Protocol: as §1, §2, §3, §4, §5, §6

[3] = system: Fusarium oxysporum; experiment: as above; type: cell-based; details: for MIC: Fusarium oxysporum, read-out: MIC (content giving complete inhibition of mycelial growth); for Inhibition grades: OF, MIC expressed on the scale of Table 2
Protocol: as §1, §2, §3, §4, §5, §6

[4] = system: Geocrichum candidum; experiment: as above; type: cell-based; details: for Inhibition grades: MIC expressed on the scale of Table 2; for MIC: read-out: MIC (content giving complete inhibition of mycelial growth)
Protocol: as §1, §2, §3, §4, §5, §6

[5] = system: Gliocladium roseum; experiment: as above; type: cell-based; details: for MIC: Clonostachys rosea, read-out: MIC (content giving complete inhibition of mycelial growth); for Inhibition grades: MIC expressed on the scale of Table 2
Protocol: as §1, §2, §3, §4, §5, §6

[6] = system: Penicillium digitatum; experiment: as above; type: cell-based; details: for Inhibition grades: MIC expressed on the scale of Table 2; for MIC: Penicillium digitatum, read-out: MIC (content giving complete inhibition of mycelial growth)
Protocol: as §1, §2, §3, §4, §5, §6

[7] = system: Penicillium expansum; experiment: as above; type: cell-based; details: for Inhibition grades: MIC expressed on the scale of Table 2; for MIC: Penicillium expansum, read-out: MIC (content giving complete inhibition of mycelial growth)
Protocol: as §1, §2, §3, §4, §5, §6

[8] = system: Phlyctaena vagabonda (“Gloeosporium”); experiment: as above; type: cell-based; details: for Inhibition grades: MIC expressed on the scale of Table 2; for MIC: read-out: MIC (content giving complete inhibition of mycelial growth)
Protocol: as §1, §2, §3, §4, §5, §6

[9] = system: Phytophtora parasitica; experiment: as above; type: cell-based; details: for Inhibition grades: MIC expressed on the scale of Table 2; for MIC: read-out: MIC (content giving complete inhibition of mycelial growth)
Protocol: as §1, §2, §3, §4, §5, §6

[10] = system: species of fungus (AA, BC, FO, GC, GR, PD, PE, PV, PhP); experiment: Fungicidal activity in vitro: total of inhibition grades over the nine species of fungus; type: cell-based; details: sum of the grades over the nine fungi
Protocol: as §1, §2, §3, §4
The results obtained are analysed simply by using the assessment scale illustrated in Table 2:
The results obtained have been expressed in Table 3 using the scale in Table 2.

[11] = system: Erwinia carotovora; experiment: Bactericidal activity in vitro in LB agar medium; type: cell-based; details: for MIC: Pectobacterium carotovorum, read-out: MIC (concentration needed to completely inhibit the growth of the bacteria)
Protocol: (§7) The bactericidal activity of eugenol and isoeugenol was evaluated in vitro and compared with that of other terpenes.
(§8) The culture medium used is the following LB medium:
(§9) Bactotryptone: 1% by weight
(§10) Yeast extract: 0.5% by weight
(§11) A suspension of bacteria at 10^6 CFU/ml was prepared in sterilized water from the LB medium. 200 μl of this bacterial suspension were added to 20 ml of presterilized LB culture medium brought to 55° C. The tested terpene is then added to the culture medium. After agitation, the medium is immediately divided among Petri dishes. The medium solidifies on cooling.
(§12) Incubation is carried out at 28° C. when the bacterium is Erwinia carotovora and at 37° C. when the bacterium is Escherichia coli.
(§13) The growth of mould in the culture medium is observed. The same experiment is carried out in the absence of terpene (control experiment).
The results are evaluated using the following assessment scale:
++: mould growth identical to the control
+: mould present with a marked reduction in growth with respect to the control
: complete absence of growth.
The results obtained for 3 different concentrations, namely 20, 80 and 320 μg/ml, in the case of the bacterium Erwinia carotovora are summarized in Table 7.
(§14) The protocol used is that described above.

[12] = system: Escherichia coli; experiment: Bactericidal activity in vitro in LB agar medium; type: cell-based; details: read-out: MIC (concentration needed to completely inhibit the growth of the bacteria)
Protocol: as §7, §8, §9, §10, §11, §12, §13, §14

[13] = system: potato tubers; experiment: Sprouting-inhibiting treatment of potato tubers by thermal fogging; type: in vivo; details: after 5 months; cold room 8 to 9° C.; 45 g/tonne then 15 g/tonne every 20 days by thermal fogging
Protocol: The effectiveness of eugenol and of isoeugenol in the sprouting-inhibiting treatment of potato tubers was evaluated and compared with that of other terpenes.
The following compositions were used in the case of eucalyptol, eugenol, isoeugenol, limonene, safrole and terpineol:
60% by weight of terpene;
7% by weight of a nonionic emulsifier;
33% by weight of butyl acetate.
In the case of L-carvone, the following composition was employed:
30% by weight of L-carvone;
10% by weight of ethanol;
5% by weight of nonionic emulsifier;
35% by weight of propylene glycol.
Isopropyl chlorophenylcarbamate (CIPC) is a compound used in the art as sprouting inhibitor for potato tubers. Its activity was compared with that of eugenol and of isoeugenol.
The composition based on isopropyl chloro-phenylcarbamate has the following formulation: […]
20% by weight of isopropyl chlorophenyl-carbamate;
50% by weight of propylene glycol;
10% by weight of nonionic emulsifier;
Each of the compositions tested was applied by thermal fogging. The temperature at the outlet of the thermal fogging device was 240° C., except in the case of the compositions based on L-carvone and on CIPC, where it was 180° C.
The amount of composition which has to be applied is calculated in each case so as to obtain an equivalent concentration of active material on the potato tubers.
In this example, repeated applications were carried out by following the following protocol:
45 g/tonne of tubers at the beginning of storage;
15 g/tonne of tubers every 20 days; so that, after 6 months, 165 g of active principle have been applied per tonne of tubers.
During storage, the tubers were stored in a cold room at a temperature of 8 to 9° C.

[14] = Concentration 320 μg/ml, 28° C.

Row | SMILES | Inhibition grades ([1]; AA) | Inhibition grades ([2]; BC) | Inhibition grades [3] | Inhibition grades ([4]; GC) | Inhibition grades ([5]; GR) | Inhibition grades ([6]; PD) | Inhibition grades ([7]; PE) | Inhibition grades ([8]; PV) | Inhibition grades ([9]; PhP) | Total of the degrees of inhibition [10] | growth in the culture medium with respect to the control ([11]; Concentration 20 μg/ml, 28° C.) | growth in the culture medium with respect to the control ([11]; Concentration 80 μg/ml, 28° C.) | growth in the culture medium with respect to the control [11, 14] | Loss in weight of the tubers [13] [%] | Total weight of the sprouts >2 mm [13] [g] | Tubers at the white point stage [13] [%] | Tubers with sprouts 2 to 5 mm [13] [%] | Tubers with sprouts <2 mm [13] [%] | Tubers with sprouts >2 mm [13] [%] | Tubers with sprouts >5 mm [13] [%] | other results
1 | CC=Cc1ccc(O)c(OC)c1 [ISOEUGENOL, isoeugenol] | 7 (20-40) | 7 (20-40) | 7 (20-40) | 8 (10-20) | 7 (20-40) | 7 (20-40) | 7 (20-40) | 7 (20-40) | 7 (20-40) | 64 | + | − | − | 2.7 | 8.5 | 22.6 | 10.6 | 56.8 | 14.4 | 3.8 | MIC ([1]; AA, min-max range of several experiments, 22° C.): 20 to 40 µg/mL (≈ 122 to 244 µM); MIC ([2]; BC, min-max range of several experiments, 22° C.): 20 to 40 µg/mL (≈ 122 to 244 µM); MIC ([3]; FO, min-max range of several experiments, 22° C.): 20 to 40 µg/mL (≈ 122 to 244 µM); MIC ([4]; GC, min-max range of several experiments, 22° C.): 10 to 20 µg/mL (≈ 60.9 to 122 µM); MIC ([5]; GR, min-max range of several experiments, 22° C.): 20 to 40 µg/mL (≈ 122 to 244 µM); MIC ([6]; PD, min-max range of several experiments, 22° C.): 20 to 40 µg/mL (≈ 122 to 244 µM); MIC ([7]; PE, min-max range of several experiments, 22° C.): 20 to 40 µg/mL (≈ 122 to 244 µM); MIC ([8]; PV, min-max range of several experiments, 22° C.): 20 to 40 µg/mL (≈ 122 to 244 µM); MIC ([9]; PhP, min-max range of several experiments, 22° C.): 20 to 40 µg/mL (≈ 122 to 244 µM); MIC ([11]; Erwinia sp., 28° C.): 20 to 40 µg/mL (≈ 122 to 244 µM); MIC ([12]; Escherichia sp., 37° C.): 40 to 80 µg/mL (≈ 244 to 487 µM); Unsprouted tubers [13]: 6.2%
2 | C=CCc1ccc2c(c1)OCO2 [SAFROLE, safrole] | 5 (80-160) | 5 (80-160) | 5 (80-160) | 4 (160-320) | 6 (40-80) | 4 (160-320) | 2 (640-1280) | 5 (80-160) | 6 (40-80) | 42 | ++ | ++ | + | 3.6 | 57.0 | 6.6 | 40.1 | 15.6 | 76.6 | 36.5 | MIC [1]: 80 to 160 µg/mL (≈ 493 to 987 µM); MIC [2]: 80 to 160 µg/mL (≈ 493 to 987 µM); MIC [3]: 80 to 160 µg/mL (≈ 493 to 987 µM); MIC [4]: 160 to 230 µg/mL (≈ 987 to 1420 µM); MIC [5]: 40 to 80 µg/mL (≈ 247 to 493 µM); MIC [6]: 160 to 230 µg/mL (≈ 987 to 1420 µM); MIC [7]: 640 to 1280 µg/mL (≈ 3950 to 7890 µM); MIC [8]: 80 to 160 µg/mL (≈ 493 to 987 µM); MIC [9]: 40 to 80 µg/mL (≈ 247 to 493 µM); MIC [11]: 320 to 640 µg/mL (≈ 1970 to 3950 µM); MIC [12]: > 640 µg/mL; Unsprouted tubers [13]: 1.2%
